Reference: PMC4406354 (Journal of bone and mineral research : the official journal …, 2015)

Biological target: T1, tissue-nonspecific alkaline phosphatase (TNAP) (Homo sapiens, UniProt P05186)
T1 sequence (P05186 18-501): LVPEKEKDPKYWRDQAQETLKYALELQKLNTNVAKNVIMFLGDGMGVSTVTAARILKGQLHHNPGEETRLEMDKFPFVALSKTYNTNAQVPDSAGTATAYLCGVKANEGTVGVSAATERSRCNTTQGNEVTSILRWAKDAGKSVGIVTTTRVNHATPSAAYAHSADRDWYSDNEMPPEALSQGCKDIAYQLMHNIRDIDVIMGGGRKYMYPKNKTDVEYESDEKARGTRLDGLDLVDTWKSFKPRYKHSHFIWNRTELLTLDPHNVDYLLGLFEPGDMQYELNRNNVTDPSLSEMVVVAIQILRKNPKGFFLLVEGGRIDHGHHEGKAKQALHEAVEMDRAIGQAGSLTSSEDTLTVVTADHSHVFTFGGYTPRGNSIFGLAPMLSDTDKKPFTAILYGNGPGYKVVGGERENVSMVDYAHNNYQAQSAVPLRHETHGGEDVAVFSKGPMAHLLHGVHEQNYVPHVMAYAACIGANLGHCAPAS
Test: in vitro TNAP inhibition IC50
Assay type: biochemical

IC50: 14 nM
Compound: COc1ccc(Cl)cc1S(=O)(=O)Nc1cncc(C(N)=O)c1 [SBI-425]
